In patent US10251860B2, “Compounds for bone healing” (University of Pittsburgh—Of the Commonwealth System of …, priority 2015, dated 2019):

Tests used:
32D cl 3 cells = experiment: 32D cl 3 colony formation in semisolid medium after irradiation; assay type: cell-based, murine; conditions: delivered before or after irradiation
PKD1 = target: T1, PKD1 (Homo sapiens, UniProt Q15139); experiment: Radiometric PKD1 inhibition assay; assay type: biochemical; conditions: stock solutions in 25% 3/NMP
T1 sequence (Q15139 1-912): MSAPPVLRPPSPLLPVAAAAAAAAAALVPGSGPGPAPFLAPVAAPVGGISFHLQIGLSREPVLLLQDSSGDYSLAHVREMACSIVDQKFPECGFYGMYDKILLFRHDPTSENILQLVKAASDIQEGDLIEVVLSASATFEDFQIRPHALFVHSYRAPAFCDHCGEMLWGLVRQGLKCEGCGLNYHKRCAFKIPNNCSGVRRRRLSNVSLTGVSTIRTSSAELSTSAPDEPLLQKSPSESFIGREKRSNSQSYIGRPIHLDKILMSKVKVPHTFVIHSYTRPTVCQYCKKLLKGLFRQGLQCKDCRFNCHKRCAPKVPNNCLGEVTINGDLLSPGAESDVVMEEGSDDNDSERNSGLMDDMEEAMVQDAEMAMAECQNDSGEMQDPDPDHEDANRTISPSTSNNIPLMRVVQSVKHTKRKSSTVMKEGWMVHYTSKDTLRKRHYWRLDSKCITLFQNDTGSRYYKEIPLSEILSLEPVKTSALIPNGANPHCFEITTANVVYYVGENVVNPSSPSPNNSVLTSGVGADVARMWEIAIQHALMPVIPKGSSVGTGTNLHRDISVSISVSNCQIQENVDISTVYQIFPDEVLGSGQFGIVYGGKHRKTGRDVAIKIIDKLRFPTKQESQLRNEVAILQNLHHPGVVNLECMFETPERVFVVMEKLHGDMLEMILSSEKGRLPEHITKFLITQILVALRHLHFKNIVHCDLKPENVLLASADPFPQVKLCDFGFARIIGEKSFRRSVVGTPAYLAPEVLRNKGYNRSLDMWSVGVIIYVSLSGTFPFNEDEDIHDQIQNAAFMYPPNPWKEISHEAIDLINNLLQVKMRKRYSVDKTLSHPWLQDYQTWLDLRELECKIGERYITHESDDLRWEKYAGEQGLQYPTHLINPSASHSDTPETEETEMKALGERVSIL
Description: Recently, a series of compounds with nanomolar to micromolar inhibitory activity against the serine/threonine protein kinase D (PKD) isoform PKD1 was disclosed (FIG. 7). Several lead structures, especially those containing a pyrimidine moiety, suffered from poor solubility not only in aqueous media but also in DMSO. To test the feasibility of using sulfoxide 3 as a cosolvent for in vitro assays, its use in the radiometric PKD1 inhibition assay was examined. Inhibitory activity at two concentrations (1 μM and 10 μM) was measured using compound stock solutions in three formulations: DMSO, NMP, and 25% 3/NMP (FIGS. 8 and 9).

[1] = test system: breast cancer cell line (MDA-MB-231); assay type: cell-based
Description: (§1) The cellular toxicity of sulfoxide 3 was further determined for a breast cancer cell line (MDA-MB-231) and a liver cell line (HepG2).

liver cell line (HepG2) = assay type: cell-based
Description: as §1

[2] = test system: C57BL/6NTac mice, 9.5 Gy total body irradiation; experiment: Total body irradiation survival (hematopoietic syndrome); assay type: in vivo, mouse
Experimental: FIG. 13 is a graph of percent survival versus day, illustrating the in vivo mitigation of total body irradiation by MMS350. MMS350 was dissolved in water at a concentration of 2 mg/ml. C57BL/6NTac mice (n=15/group) were irradiated to 9.5 Gy total body irradiation and injected intraperitoneally with 10 mg/kg of MMS350 at 4 or 24 hours after irradiation. The mice were followed for the development of the hematopoietic syndrome at which time the mice were sacrificed.
Mice were irradiated using JL Shepherd Mark 1 Model 68 irradiator to 9.25 total body irradiation dose or a Varian Linear Accelerator (Varian Medical Systems, Inc, Palo Alto, Calif.) to 20 Gy for pulmonary irradiation according to published methods (2, 10, 13).
Mice were injected intra-peritoneally with MMS350 or JP4-039 (GS-nitroxide) in 50% cremphor/50% ethanol according to published methods. For long-term administration of MMS350, the drug was administered in water bottles with bottles changed every 7 days. The dose of drug per bottle was 100 μM MMS350 starting on day 88. The estimated total amount consumed by each animal daily was 10.9 μg based on a mouse drinking 5 ml of water per day. Chimeric mice irradiated to the thoracic cavity were placed 30 days later on MMS350 in water containing 100 mM MMS350. On day 88 after thoracic irradiation of non-chimeric mice, mice were placed on […] MMS350 in drinking water.

mice = experiment: Dose escalation experiments in mice; assay type: in vivo, mouse
Description: In particular, certain embodiments of the oxetane-substituted compounds (e.g., MMS350) are radiation protector/mitigators that are water soluble, and easily administered (e.g., orally administered to a subject). […] Furthermore, MnSOD-PL is relatively ineffective when delivered weeks-months after irradiation, at the time that fibrosis is forming, and appears to be only effective when delivered prior to irradiation. In contrast, MMS350 as shown in the data reported herein, has high effectiveness when delivered months after irradiation and at the time of initiation of radiation fibrosis in the lung.

SMILES: CC1(C[S+]([O-])CC2(C)COC2)COC1 [Compound 3, 3,3′-Sulfinylbis(methylene)bis(3-methyloxetane)]
- radiation protection and mitigation of colony forming cells (32D cl 3 cells): significant effectiveness
- interference with PKD1 inhibition assay (PKD1): did not interfere with the standard PKD1 inhibition assay
- GI50 [1]: ~200 mM
- GI50 (liver cell line (HepG2)): ~200 mM
- survival ([2]; 9.5 Gy TBI, 10 mg/kg intraperitoneally 4 hours after irradiation, p=0.0092): significantly increased survival
- survival ([2]; 9.5 Gy TBI, 10 mg/kg intraperitoneally 24 hours after irradiation, p=0.0097): significantly increased survival
- protection and mitigation against total body irradiation ([2]; intraperitoneal injection before or after 9.5 Gy TBI, C57BL/6 mice, n=15/group): both a protector when delivered prior to irradiation and mitigator when delivered after irradiation comparable to JP4-039
- survival ([2]; single dose 24 hours after 9.5 Gy TBI, C57BL/6/HNsd mice): significant improvement in survival
- toxic dose (mice): a toxic dose has not yet been reached
